In patent publication US20240124444A1 (Celgene Corporation, priority 2020, published 2024) one finds inhibition and EC50 data, which are given here for 28 compounds.

Like-named read-outs stand apart in the source and are kept apart here.

The subject of this assay is C. parvum strain UGA1. The experiment in a line: C. parvum growth inhibition assay (Nluc luminescence in HCT-8 cells). Type of assay: cell-based, Cryptosporidium parvum. The conditions noted are these: Cryptosporidium parvum; for inhibition at 1 µM / inhibition at 10 µM: HCT-8; for inhibition at 1 µM: read-out: % inh @ 1 uM C. parvum; for inhibition at 10 µM: read-out: % inh @ 10 uM C. parvum; for EC50: HCT-8, 48 h, C. parvum growth inhibition in HCT-8 cells, 48 hours, 6 concentrations 10-0.04 μM. Here is the method: C. parvum GROWTH INHIBITION ASSAYS
C. parvum growth inhibition was performed as described in Hulverson M A, Vinayak S, Choi R, Schaefer D A, Castellanos-Gonzalez A, Vidadala R S R, Brooks C F, Herbert G T, Betzer D P, Whitman G R, Sparks H N, Arnold S L M, Rivas K L, Barrett L K, White A C Jr, Maly D J, Riggs M W, Striepen B, Van Voorhis W C, Ojo K K. Bumped-Kinase Inhibitors for Cryptosporidiosis Therapy. J Infect Dis. 2017 Apr. 15; 215(8):1275-1284.
C. parvum strain UGA1 […] (ATCC, Manassas, VA) were prepared as described below. HCT-8 cells were inoculated onto 96-well plates were grown for 48 hours to 90%-100% confluence. C. parvum oocysts were then incubated for 10 minutes in 10% bleach at room temperature and washed with Dulbecco's phosphate-buffered saline. One thousand oocysts per well were applied to plates with Roswell Park Memorial Institute 1640 (RPMI) medium supplemented with 10% horse serum and 1% penicillin/streptomycin. Compounds of Formula (I), Formula (II), and Formula (III) were added to the plates at different concentrations and the plates were incubated for 48 hours. Following the incubation, the monolayers were lysed for 1 hour before a luciferase reagent was added, and relative luminescence units were determined.
For certain compounds of Formula I, Formula II, and Formula III, EC50 values were calculated using curves calculated from Prism after analysis of C. parvum growth inhibition at 6 different concentrations: 10, 3.33, 1.11, 0.37, 0.12, and 0.04 μM. […] For certain compounds of Formula I, Formula II, and Formula III, single point inhibition values of 0-33% (activity level D), between 33% and 66% (activity level E), and between 67% and 100% (activity level F) are also shown in Table 1 below.

[1] abbreviates: single point inhibition at 1 uM.
Setting [2] is: single point inhibition at 10 uM.
The mark [3] stands for this setting: single point inhibition @ 10 uM.

In the case of `COc1nccc(-c2cc3cnc(NC(=O)c4cnn(CC5CCCO5)c4)cc3[nH]2)n1` (stereo in doubt) [Example 231, (R)-N-(2-(2-methoxypyrimidin-4-yl)-1H-pyrrolo[3,2-c]pyridin-6-yl)-1-((tetrahydrofuran-2-yl)methyl)-1H-pyrazole-4-carboxamide], the inhibition at 1 µM under setting [1] was 33 to 66%. For the same compound, the inhibition at 10 µM under setting [2] was 33 to 66%.
For `CC(C)n1cc(C(=O)Nc2cc3c(cn2)cc(-c2ccnc(NCCC(F)(F)F)n2)n3C)cn1` [Example 178, 1-isopropyl-N-(1-methyl-2-(2-(3,3,3-trifluoropropylamino)pyrimidin-4-yl)-1H-pyrrolo[3,2-c]pyridin-6-yl)-1H-pyrazole-4-carboxamide], for the setting “single point inhibition @ 1 uM”, the inhibition at 1 µM lay in the range of 0 to 33%. Moreover, the inhibition at 10 µM under setting [3] fell in the range of 67 to 100%.
`COCCOc1ccc(C(=O)Nc2cc3[nH]c(-c4ccnc(C)c4)cc3cn2)cc1OC` [Example 295, 3-methoxy-4-(2-methoxyethoxy)-N-(2-(2-methylpyridin-4-yl)-1H-pyrrolo[3,2-c]pyridin-6-yl)benzamide]: the inhibition at 1 µM under setting [1] lay within 0 to 33%. The inhibition at 10 µM under setting [2] was in the range of 0 to 33%.
For the compound `CO[C@H]1C[C@H](C(=O)Nc2cc3[nH]c(-c4ccnc(C)c4)cc3cn2)C1` [Example 161, (1r,3r)-3-methoxy-N-(2-(2-methylpyridin-4-yl)-1H-pyrrolo[3,2-c]pyridin-6-yl)cyclobutanecarboxamide], for the setting “single point inhibition @ 1 uM”, the inhibition at 1 µM fell in the range of 0 to 33%. Further, under setting [3], the inhibition at 10 µM lay in the range of 67 to 100%.
For the compound `O=C(Nc1cc2[nH]c(-c3cccnc3)cc2cn1)C1CCCC1` [Example 276, N-(2-(pyridin-3-yl)-1H-pyrrolo[3,2-c]pyridin-6-yl)cyclopentanecarboxamide], the inhibition at 1 µM under setting [1] fell in the range of 0 to 33%. Moreover, the inhibition at 10 µM under setting [2] fell in the range of 0 to 33%.
As a reminder, the EC50 is the midpoint of the concentration-response curve. Read a low EC50 as an effect from little substance. In the case of `Cn1cnc(-c2cc3cnc(NC4CCOCC4)cc3n2C)c1` [Example 348, 1-methyl-2-(1-methyl-1H-imidazol-4-yl)-N-(tetrahydro-2H-pyran-4-yl)-1H-pyrrolo[3,2-c]pyridin-6-amine], the EC50 is greater than 1 µM.
As for `FC(F)(F)CNc1nccc(-c2cc3cnc(NC4CCC4)cc3[nH]2)n1` [Example 373, N-cyclobutyl-2-(2-(2,2,2-trifluoroethylamino)pyrimidin-4-yl)-1H-pyrrolo[3,2-c]pyridin-6-amine], the EC50 lay within 0.5 to 1 µM.
The same measure, in the same setting: the result for `c1cc(-c2cc3cnc(NC4CCOCC4)cc3[nH]2)ccn1` [Example 353, 2-(pyridin-4-yl)-N-(tetrahydro-2H-pyran-4-yl)-1H-pyrrolo[3,2-c]pyridin-6-amine] reads less than 0.5 µM.
`Cc1cc(-c2cc3cnc(NC(=O)c4cnn(C5CCOC5)c4)cc3[nH]2)ccn1` (centres unmarked) [Example 236, N-(2-(2-methylpyridin-4-yl)-1H-pyrrolo[3,2-c]pyridin-6-yl)-1-(tetrahydrofuran-3-yl)-1H-pyrazole-4-carboxamide]: under setting [1], the inhibition at 1 µM fell in the range of 33 to 66%. Further, under setting [2], the inhibition at 10 µM is 33 to 66%.
`c1cc(-c2cc3cnc(NC4CCOCC4)cc3[nH]2)nc(N2CCCC2)n1` [Example 372, 2-(2-(pyrrolidin-1-yl)pyrimidin-4-yl)-N-(tetrahydro-2H-pyran-4-yl)-1H-pyrrolo[3,2-c]pyridin-6-amine]: the concentration for a half-maximal effect (EC50) is less than 0.5 µM.
`CC(C)c1cc2cnc(NC3CCOCC3)cc2[nH]1` [Example 359, 2-isopropyl-N-(tetrahydro-2H-pyran-4-yl)-1H-pyrrolo[3,2-c]pyridin-6-amine] yielded an EC50 greater than 1 µM.
On the same count and under the same terms, the result for `Cc1cccc(-c2cc3cnc(NC(=O)C4CC4)cc3n2C)c1` [Example 346, N-(1-methyl-2-m-tolyl-1H-pyrrolo[3,2-c]pyridin-6-yl)cyclopropanecarboxamide] reads greater than 1 µM; that for `COc1nccc(-c2cc3cnc(NC(=O)C4CC4)cc3n2CCO)n1` [Example 343, N-(1-(2-hydroxyethyl)-2-(2-methoxypyrimidin-4-yl)-1H-pyrrolo[3,2-c]pyridin-6-yl)cyclopropanecarboxamide], greater than 1 µM.
The compound `O=C(Nc1cc2[nH]c(-c3cnc(C(F)(F)F)s3)cc2cn1)C1CC1` [Example 103, N-(2-(2-(trifluoromethyl)thiazol-5-yl)-1H-pyrrolo[3,2-c]pyridin-6-yl)cyclopropanecarboxamide] had an EC50 greater than 1 µM.
Turning to `Cc1cc(-c2cc3cnc(NC(=O)CC4COC4)cc3[nH]2)ccn1` [Example 165, N-(2-(2-methylpyridin-4-yl)-1H-pyrrolo[3,2-c]pyridin-6-yl)-2-(oxetan-3-yl)acetamide], the inhibition at 1 µM (single point inhibition @ 1 uM) lay within 0 to 33%. For the same compound, the inhibition at 10 µM under setting [3] is 67 to 100%.
Take `Cc1nn(C)cc1C(=O)Nc1cc2c(cn1)cc(-c1ccnc(NCC(F)(F)F)n1)n2C` [Example 240, 1,3-dimethyl-N-(1-methyl-2-(2-(2,2,2-trifluoroethylamino)pyrimidin-4-yl)-1H-pyrrolo[3,2-c]pyridin-6-yl)-1H-pyrazole-4-carboxamide]: the inhibition at 1 µM under setting [1] was 0 to 33%. Under setting [2], the inhibition at 10 µM is 0 to 33%.
With `N#Cc1cc2cnc(Nc3cc(-c4nc[nH]n4)cc(C4CCOCC4)c3)cc2[nH]1` [Example 208, 6-(3-(tetrahydro-2H-pyran-4-yl)-5-(1H-1,2,4-triazol-3-yl)phenylamino)-1H-pyrrolo[3,2-c]pyridine-2-carbonitrile], the inhibition at 1 µM under setting [1] lay in the range of 0 to 33%. For the same compound, the inhibition at 10 µM under setting [2] fell in the range of 67 to 100%.
On to `O=C(Nc1cc2[nH]c(-c3ccnc(C(F)(F)F)n3)cc2cn1)[C@H]1C[C@H](O)C1` [Example 92, (1r,3r)-3-hydroxy-N-(2-(2-(trifluoromethyl)pyrimidin-4-yl)-1H-pyrrolo[3,2-c]pyridin-6-yl)cyclobutanecarboxamide], for which the EC50 is greater than 1 µM. Besides, the inhibition at 1 µM (single point inhibition @ 1 uM) was 33 to 66%. The inhibition at 10 µM under setting [3] was 0 to 33%.
In the case of `Cc1nn(C)cc1C(=O)Nc1cc2[nH]c(-c3ccncc3)cc2cn1` [Example 278, 1,3-dimethyl-N-(2-(pyridin-4-yl)-1H-pyrrolo[3,2-c]pyridin-6-yl)-1H-pyrazole-4-carboxamide], the inhibition at 1 µM under setting [1] lay in the range of 0 to 33%. In addition, the inhibition at 10 µM under setting [2] fell in the range of 0 to 33%.
`Cc1cc(-c2cc3cnc(NC(=O)C4CC4)cc3n2CCO)ncn1` [Example 55, N-(1-(2-hydroxyethyl)-2-(6-methylpyrimidin-4-yl)-1H-pyrrolo[3,2-c]pyridin-6-yl)cyclopropanecarboxamide] showed an EC50 greater than 1 µM.
With `Cn1cc(-c2cc3cnc(NC4CCOCC4)cc3n2C)cn1` [Example 223, 1-methyl-2-(1-methyl-1H-pyrazol-4-yl)-N-(tetrahydro-2H-pyran-4-yl)-1H-pyrrolo[3,2-c]pyridin-5-amine], the inhibition at 1 µM under setting [1] is 0 to 33%. The inhibition at 10 µM under setting [2] was in the range of 33 to 66%.
`CCc1cc2cnc(NC3CCOCC3)cc2[nH]1` [Example 361, 2-ethyl-N-(tetrahydro-2H-pyran-4-yl)-1H-pyrrolo[3,2-c]pyridin-6-amine] came in with an EC50 greater than 1 µM.
Still for that read-out and setting: the result for `Cc1cc(-c2cc3cnc(N(C)C4CCOCC4)cc3[nH]2)ccn1` [Example 114, N-methyl-2-(2-methylpyridin-4-yl)-N-(tetrahydro-2H-pyran-4-yl)-1H-pyrrolo[3,2-c]pyridin-6-amine] reads greater than 1 µM.
`CC(C)n1cc(C(=O)Nc2cc3[nH]c(-c4ccnc(OCCF)n4)cc3cn2)cn1` [Example 146, N-(2-(2-(2-fluoroethoxy)pyrimidin-4-yl)-1H-pyrrolo[3,2-c]pyridin-6-yl)-1-isopropyl-1H-pyrazole-4-carboxamide]: the inhibition at 1 µM (single point inhibition @ 1 uM) was in the range of 0 to 33%. The inhibition at 10 µM under setting [3] is 67 to 100%.
As to `Cn1cc(C(=O)Nc2cc3[nH]c(CCCO)cc3cn2)cn1` [Example 89, N-(2-(3-hydroxypropyl)-1H-pyrrolo[3,2-c]pyridin-6-yl)-1-methyl-1H-pyrazole-4-carboxamide], the EC50 is greater than 1 µM. Also, the inhibition at 1 µM (single point inhibition @ 1 uM) was 0 to 33%. For the same compound, under setting [3], the inhibition at 10 µM was in the range of 0 to 33%.
`CC(=O)Nc1cc2c(cn1)cc(-c1cc(C)ncn1)n2C` [Example 119, N-(1-methyl-2-(6-methylpyrimidin-4-yl)-1H-pyrrolo[3,2-c]pyridin-6-yl)acetamide]: the half-maximal effective concentration (EC50) was greater than 1 µM.
On the same count and under the same terms, the same measure for `Cc1cc(-c2cc3cnc(NC4CCCOC4)cc3[nH]2)ccn1` (stereo in doubt) [Example 355, (S)-2-(2-methylpyridin-4-yl)-N-(tetrahydro-2H-pyran-3-yl)-1H-pyrrolo[3,2-c]pyridin-6-amine]: greater than 1 µM; for `FC(F)(F)CNc1nccc(-c2cc3cnc(NC4CCOC4)cc3[nH]2)n1` (stereo in doubt) [Example 366, (R)-N-(tetrahydrofuran-3-yl)-2-(2-(2,2,2-trifluoroethylamino)pyrimidin-4-yl)-1H-pyrrolo[3,2-c]pyridin-6-amine]: less than 0.5 µM.
